Experimental data published in patent US7196192B2, “28-epirapalogs” (Ariad Gene Therapeutics, Inc., priority 1999, dated 2007).
Read-outs that look alike come from different tables or passages of the source.

Columns and labels:
FKBP = FKBP (Homo sapiens, UniProt P62942); assay: FKBP competitive binding assay based on fluorescence polarization (FP); details: competitive FP binding
Procedure: A Competitive Binding FP Assay is described in detail in WO99/36553 and WO96/41865. That assay permits the in vitro measurement of an IC50 value for a given compound which reflects its ability to bind to an FKBP-protein in competition with a labeled FKBP ligand, such as, for example, FK506.
(§1) A diverse group of C7-modified 28-epirapalogs were prepared as described in Example 4.

[1] = biological target: T1, transcriptional switch components containing FKBP and 2098L mutant FRB domains (Homo sapiens, UniProt P42345+P62942); assay: transcription assay in engineered HD1080 cells expressing SEAP (txn 2098L); type: cell-based; details: for TXN 2098L peak relative to rapamycin peak: superscript mark on EC50 cell
T1 construct: transcriptional switchcomponents containing FKBP and 2098L mutant FRB domains, respectively; fused on or other part: The two switch components are separate chimeric proteins; Neither is given for this cell line
T1 sequence (P62942 2-108 limits assumed, stated change not applied, other chains not shown): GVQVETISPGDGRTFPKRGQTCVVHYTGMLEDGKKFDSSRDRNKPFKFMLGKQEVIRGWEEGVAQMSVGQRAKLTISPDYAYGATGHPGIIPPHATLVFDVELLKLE
From the text: The ability of the rapalogs to multimerize chimeric proteins may be measured in cell-based assays by measuring the occurrence of an event triggered by such multimerization. For instance, one may use cells containing and capable of expressing DNA encoding a first chimeric protein comprising one or more FKBP-domains and one or more effector domains as well as DNA encoding a second chimeric protein containing an FRB domain and one or more effector domains capable, upon multimerization, of actuating a biological response. We prefer to use cells which further contain a reporter gene under the transcriptional control of a regulatory element (i.e., promoter) which is responsive to the multimerization of the chimeric proteins. The design and preparation of illustrative components and their use in so engineered cells is described in WO99/36553 and WO96/41865 and the other international patent applications referred to in this and the foregoing section. (See also W099/10510 for additional guidance on the design, assembly and delivery of nucleic acids to render cells and animals responsive to rapalogs of interest and for additional guidance on applications of such systems.) The cells are grown or maintained in culture. A rapalog is added to the culture medium and after a suitable incubation period (to permit gene expression and secretion, e.g. several hours or overnight) the presence of the reporter gene product is measured. Positive results, i.e., multimerization, correlates with transcription of the reporter gene as observed by the appearance of the reporter gene product. The reporter gene product may be a conveniently detectable protein (e.g. by ELISA) or may catalyze the production of a conveniently detectable product (e.g. colored). Materials and methods for producing appropriate cell lines for conducting such assays are disclosed in the international patent applications cited above in this section.
2. EC50 values of the various compounds was measured in a transcription assay using genetically engineered HD1080 cells which constitutively express transcriptional switch components containing FKBP and 2098L mutant FRB domains, respectively and which regulatably express secreted alkaline phosphatase (SEAP) in the presence of a compound which multimerizes the switch components. The assay is a literature assay. See WO 99/36553, e.g. Example 12, pages 120–121 (& FIG. 2D) […]

murine splenocyte = murine splenocyte assay for immunosuppressive activity; type: cell-based; details: read-out: Splenocyte IC50
Procedure: 3. Conventional murine splenocyte assay for immunosuppressive activity.
as §1

[2] = methods of Example 2.5, read-out: FKBP IC50
[3] = cellular transcription assay, methods of Example 2.5, read-out: TXN 2098L EC50
[4] = mouse splenocyte assay, methods of Example 2.5
[5] = FKBP IC50 (nM), methods of Example 2.5
[6] = read-out: TXN 2098L EC50, cellular transcription assay, methods of Example 2.5
[7] = Mus musculus, Splenocyte, mouse splenocyte assay, methods of Example 2.5
[8] = fluorescein-labelled FK506 probe (AP1491), read-out: FKBP binding IC50
[9] = HD1080 cells, FKBP and 2098L mutant FRB switch, SEAP reporter, read-out: txn 2098L EC50
[10] = Mus musculus, Splenocyte, murine splenocyte assay, immunosuppressive activity

FKBP, sequence (P62942 whole entry): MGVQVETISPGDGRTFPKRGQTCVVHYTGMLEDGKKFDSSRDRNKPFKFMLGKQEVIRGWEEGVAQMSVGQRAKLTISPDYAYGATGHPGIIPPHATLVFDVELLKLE

Compound | IC50 (murine splenocyte; [7]) [nM] | IC50 (FKBP; [2]) [nM] | EC50 [1, 3] [nM] | TXN 2098L peak relative to rapamycin peak [1] | IC50 (murine splenocyte; [4]) [nM] | also measured
COC1CC(CC(C)C2CC(=O)C(C)C=C(C)C(O)C(OC)C(=O)C(C)CC(C)C=CC=CC=C(C)C(NC(=O)Oc3ccccc3)CC3CCC(C)C(O)(O3)C(=O)C(=O)N3CCCCC3C(=O)O2)CCC1O (stereo not drawn) [28-epi-7R-phenylcarbamate] |  | 9 | 10 | (+) (peak was >125% rapamycin peak) | > 5000 | 
CCOC(=O)N(C)C1CC2CCC(C)C(O)(O2)C(=O)C(=O)N2CCCCC2C(=O)OC(C(C)CC2CCC(O)C(OC)C2)CC(=O)C(C)C=C(C)C(O)C(OC)C(=O)C(C)CC(C)C=CC=CC=C1C (single isomer, unassigned) [28-epi-7S-N-methyl-ethylcarbamate] |  | 30 | 12 | (−) (peak was <80% rapamycin peak) | 2290 | 
28-epi-7S-dimethylthiophene |  | 78 | 30 |  | 1240 to 1540 | 
CCCS(=O)(=O)N(C)C1CC2CCC(C)C(O)(O2)C(=O)C(=O)N2CCCCC2C(=O)OC(C(C)CC2CCC(O)C(OC)C2)CC(=O)C(C)C=C(C)C(O)C(OC)C(=O)C(C)CC(C)C=CC=CC=C1C (single isomer, unassigned) [28-epi-7R-N-Me-propanesulfonamide] |  | 148 | 9 |  | 1370 | 
CCOC(=O)N[C@@H]1C[C@@H]2CC[C@@H](C)[C@@](O)(O2)C(=O)C(=O)N2CCCC[C@H]2C(=O)O[C@H]([C@H](C)C[C@@H]2CC[C@@H](O)[C@H](OC)C2)CC(=O)[C@H](C)/C=C(\C)[C@H](O)[C@@H](OC)C(=O)[C@H](C)C[C@H](C)/C=C/C=C/C=C/1C [28-epi-7R-ethylcarbamate] | > 5000 |  |  | (+) (peak was >125% rapamycin peak) |  | IC50 (FKBP; [5]): 7.5 nM; EC50 [1, 6]: 9 nM
COC1CC(CC(C)C2CC(=O)C(C)C=C(C)C(O)C(OC)C(=O)C(C)CC(C)C=CC=CC=C(C)C(NS(=O)(=O)N(C)C)CC3CCC(C)C(O)(O3)C(=O)C(=O)N3CCCCC3C(=O)O2)CCC1O (stereo not drawn) [28-epi-7S-dimethylsulfamide] |  | 13 | 20 | (+) (peak was >125% rapamycin peak) | 879 | 
COC1CC(CC(C)C2CC(=O)C(C)C=C(C)C(O)C(OC)C(=O)C(C)CC(C)C=CC=CC=C(C)C(NC(=O)OCc3ccccc3)CC3CCC(C)C(O)(O3)C(=O)C(=O)N3CCCCC3C(=O)O2)CCC1O (stereo not drawn) [28-epi-7R-benzylcarbamate] |  | 12 | 9 | (+) (peak was >125% rapamycin peak) | 2260 | 
C=CCO[C@@H]1C[C@@H]2CC[C@@H](C)[C@@](O)(O2)C(=O)C(=O)N2CCCC[C@H]2C(=O)O[C@H]([C@H](C)C[C@@H]2CC[C@@H](O)[C@H](OC)C2)CC(=O)[C@H](C)/C=C(\C)[C@H](O)[C@@H](OC)C(=O)[C@H](C)C[C@H](C)/C=C/C=C/C=C/1C [28-epi-7R-allyloxy] | 3400 |  |  |  |  | IC50 (FKBP; [5]): 11 nM; EC50 [1, 6]: 25 nM
CO[C@@H]1C[C@H](C[C@@H](C)[C@@H]2CC(=O)[C@H](C)/C=C(\C)[C@H](O)[C@@H](OC)C(=O)[C@H](C)C[C@H](C)/C=C/C=C/C=C(\C)[C@H](NS(C)(=O)=O)C[C@@H]3CC[C@@H](C)[C@@](O)(O3)C(=O)C(=O)N3CCCC[C@H]3C(=O)O2)CC[C@H]1O [28-epi-7R-methanesulfonamide] | 91 | 7.2 | 24 |  |  | 
COC1CC(CC(C)C2CC(=O)C(C)C=C(C)C(O)C(OC)C(=O)C(C)CC(C)C=CC=CC=C(C)C(c3ccc(C)s3)CC3CCC(C)C(O)(O3)C(=O)C(=O)N3CCCCC3C(=O)O2)CCC1O (stereo not drawn) [28-epi-7S-methylthiophene] |  | 86 | 25 |  | 170 to 242 | 
CO[C@@H]1C[C@H](C[C@@H](C)[C@@H]2CC(=O)[C@H](C)/C=C(\C)[C@H](O)[C@@H](OC)C(=O)[C@H](C)C[C@H](C)/C=C/C=C/C=C(\C)[C@H](Oc3ccccc3)C[C@@H]3CC[C@@H](C)[C@@](O)(O3)C(=O)C(=O)N3CCCC[C@H]3C(=O)O2)CC[C@H]1O [28-epi-7R-phenyloxy] | 200 to 1950 | 19 | 9 | (−) (peak was <80% rapamycin peak) |  | 
COC1CC(CC(C)C2CC(=O)C(C)C=C(C)C(O)C(OC)C(=O)C(C)CC(C)C=CC=CC=C(C)C(c3ccc(C)s3)CC3CCC(C)C(O)(O3)C(=O)C(=O)N3CCCCC3C(=O)O2)CCC1O (stereo not drawn) [28-epi-7R-methylthiophene] |  | 120 | 22 |  | 394 to 424 | 
C=CCO[C@@H]1CC[C@@H](C[C@@H](C)[C@@H]2CC(=O)[C@H](C)/C=C(\C)[C@H](O)[C@@H](OC)C(=O)[C@H](C)C[C@H](C)/C=C/C=C/C=C(\C)[C@@H](OC)C[C@@H]3CC[C@@H](C)[C@@](O)(O3)C(=O)C(=O)N3CCCC[C@H]3C(=O)O2)C[C@H]1OC [43-O-allyl-28-epirapamycin] |  |  |  |  |  | IC50 (FKBP; [8]): 65 nM; EC50 [1, 9]: 8 nM; IC50 (murine splenocyte; [10]): 641 to 684 nM
COC1CC(CC(C)C2CC(=O)C(C)C=C(C)C(O)C(OC)C(=O)C(C)CC(C)C=CC=CC=C(C)C(NC(=O)Oc3ccccc3)CC3CCC(C)C(O)(O3)C(=O)C(=O)N3CCCCC3C(=O)O2)CCC1O (stereo not drawn) [28-epi-7S-phenylcarbamate] |  | 18 | 14 | (+) (peak was >125% rapamycin peak) | > 5000 | 
CO[C@H]1C[C@@H]2CC[C@@H](C)[C@@](O)(O2)C(=O)C(=O)N2CCCC[C@H]2C(=O)O[C@H]([C@H](C)C[C@@H]2CC[C@@H](OC)[C@H](OC)C2)CC(=O)[C@H](C)/C=C(\C)[C@H](O)[C@@H](OC)C(=O)[C@H](C)C[C@H](C)/C=C/C=C/C=C/1C [43-O-methyl-28-epirapamycin] |  |  |  |  |  | IC50 (FKBP; [8]): 34 nM; EC50 [1, 9]: 3 nM; IC50 (murine splenocyte; [10]): 20 to 31 nM
COc1ccccc1COC1CC2CCC(C)C(O)(O2)C(=O)C(=O)N2CCCCC2C(=O)OC(C(C)CC2CCC(O)C(OC)C2)CC(=O)C(C)C=C(C)C(O)C(OC)C(=O)C(C)CC(C)C=CC=CC=C1C (single isomer, unassigned) [28-epi-7S-2′-methoxybenzyloxy] |  | 33 | 15 |  | 25 | 
CO[C@H]1C[C@@H]2CC[C@@H](C)[C@@](O)(O2)C(=O)C(=O)N2CCCC[C@H]2C(=O)O[C@H]([C@H](C)C[C@@H]2CC[C@@H](OCc3ccccc3)[C@H](OC)C2)CC(=O)[C@H](C)/C=C(\C)[C@H](O)[C@@H](OC)C(=O)[C@H](C)C[C@H](C)/C=C/C=C/C=C/1C [43-O-benzyl-28-epirapamycin] |  |  |  |  |  | IC50 (FKBP; [8]): 63 nM; EC50 [1, 9]: 12 nM; IC50 (murine splenocyte; [10]): ~1200 nM

Now from value to compound, other results behind:

IC50 (murine splenocyte; [7]) [nM] | Compound | IC50 (FKBP; [2]) [nM] | EC50 [1, 3] [nM] | TXN 2098L peak relative to rapamycin peak [1] | IC50 (murine splenocyte; [4]) [nM] | also measured
140 | CO[C@@H]1C[C@H](C[C@@H](C)[C@@H]2CC(=O)[C@H](C)/C=C(\C)[C@H](O)[C@@H](OC)C(=O)[C@H](C)C[C@H](C)/C=C/C=C/C=C(\C)[C@@H](N(C)S(C)(=O)=O)C[C@@H]3CC[C@@H](C)[C@@](O)(O3)C(=O)C(=O)N3CCCC[C@H]3C(=O)O2)CC[C@H]1O [28-epi-7S-N-Me-methanesulfonamide] | 21 | 27 | (+) (peak was >125% rapamycin peak) |  | 
478 to 2500 | CO[C@@H]1C[C@H](C[C@@H](C)[C@@H]2CC(=O)[C@H](C)/C=C(\C)[C@H](O)[C@@H](OC)C(=O)[C@H](C)C[C@H](C)/C=C/C=C/C=C(\C)[C@@H](Oc3ccccc3)C[C@@H]3CC[C@@H](C)[C@@](O)(O3)C(=O)C(=O)N3CCCC[C@H]3C(=O)O2)CC[C@H]1O [28-epi-7S-phenyloxy] | 36 | 8 | (−) (peak was <80% rapamycin peak) |  | 
